Results from US20130316374A1, “BREAST CANCER DIAGNOSTICS” (IMBA - INSTITUT FUR MOLEKULARE BIOTECHNOLOGIE GMBH, priority 2010, published 2013).

B1: OPG: secreted decoy receptor that can reduce the RANKL activity (protein, UniProt O00300 22-401, looked up)
Tumor necrosis factor …: ETFPPKYLHYDEETSHQLLCDKCPPGTYLKQHCTAKWKTVCAPCPDHYYTDSWHTSDECLYCSPVCKELQYVKQECNRTHNRVCECKEGRYLEIEFCLKHRSCPPGFGVVQAGTPERNTVCKRCPDGFFSNETSSKAPCRKHTNCSVFGLLLTQKGNATHDNICSGNSESTQKCGIDVTLCEEAFFRFAVPTKFTPNWLSVLVDNLPGTKVNAESVERIKRQHSSQEQTFQLLKLWKHQNKDQDIVKKIIQDIDLCENSVQRHIGHANLTFEQLRSLMESLPGKKVGAEDIEKTIKACKPSDQILKLLSLWRIKNGDQDTLKGLMHALKHSKTYHFPKTVTQSLKKTIRFLHSFTMYKLYQKLFLEMIGNQVQSVKISCL

Key:
RANKL = RANKL expression in purified mammary epithelial cells (qRT-PCR, Western blot); format: in vivo, mouse; conditions: nulliparous wild type females, 3 days after implantation/oral gavage
Method: a,b, MPA induces RANKL expression in mammary epithelial cells. Nulliparous wild type females were treated with oral gavage of DMBA or oil vehicle, s.c. implanted with slow-release MPA pellets, or treated with sham surgery. a, RANKL mRNA was determined in purified mammary epithelial cells by qRT-PCR 3 days after implantation/oral gavage. Data are shown as fold change compared to sham treatment+/−sem. n=3 mice per group. b, Expression of soluble (s) RANKL protein (19 kDa) was assayed on cell lysates from purified mammary epithelial cells by Western blot 3 days after treatment with oil vehicle, DMBA, MPA, or sham surgery. β-actin is shown as a loading control. […] Data are shown as percentage of tumor-free mice after the last DMBA challenge. No significant difference was found between the Cre+ and the Cre− control groups. Median tumor onset for Cre^+ controls was 9 days, for Cre^− controls 11 days, and for RANK^Δmam females 30 days after the last DMBA treatment. d, Representative Southern blot of MPA/DMBA-induced mammary tumors derived from RANK^flox/+; MMTV-Cre+ and RANK^flox/Δ; MMTV-Cre+ (RANK^Δmam) females. […]
Total RNA of tumors was prepared using the RNeasy Mini Kit (Qiagen), according to the manufacturer's instructions. Total RNA (2 μg) was subjected to quantitative (q)RT-PCR analysis. […]

[1] = system: human SKBR3 breast cancer cells; assay: Soft-Agar Colony Formation Assay; format: cell-based; conditions: OPG (1 μg/ml) with RANKL (1 μg/ml)
Method: a, Western blotting for phosphorylated (P) IKKα, total IKKα, phosphorylated (P) p65 NFκB, total p65 NFκB, phosphorylated (P) IκBα, and total IκBα in isolated primary mouse mammary gland epithelial cells (MECs) in response to RANKL stimulation (1 μg/ml). […] is shown as loading control. b, Western blotting for IKKα, IKKβ, IKKγ, phosphorylated (P) p65 NFκB, total p65 NFκB, phosphorylated (P) IκBα, and total IκBα in pooled late stage mammary adenocarconimas (n=4 for each lane) that developed in control, RANK^Δmam, and IKKα^Δmam females. β-actin is shown as loading control c, Expression of RANK, CyclinD1, and p21 mRNA in late stage mammary adenocacinomas that developed in control, RANK^Δmam, and IKKα^Δmam females. Expression was determined by qRT-PCR. Data are mean values+/−sem. n=4 per group. d, Soft-Agar Colony Formation Assay. Growth of human SKBR3 breast cancer cells in soft agar in response to stimulation with RANKL (1 μg/ml) or EGF (100 ng/ml). […] Apoptosis was detected by immunostaining for active Caspase 3. f, Apoptotic nuclei of epithelial cells (arrows) are shown for representative mammary gland sections. Magnifications ×40. g, Quantification of mammary epithelial apoptosis. A minimum of 5000 nuclei was counted for each mouse. […]

Molecule | RANKL mRNA and protein expression in mammary epithelial cells (RANKL) | RANKL-induced colony formation in soft agar [1]
Cc1c2ccccc2c(C)c2c1ccc1ccccc12 [DMBA, dimethylbenz[a]anthracene] | not | –
B1 | – | prevented
